Measurements: patent publication US20080318227A1, “Intermediates and enzymes of the non-mevalonate isoprenoid pathway” (priority 2001, published 2008)

Tests used:
IspG (GcpE) = molecular target: T1, IspG (GcpE) (Escherichia coli, UniProt P62620); assay: Screening of IspG (GcpE) enzyme activity, crude cell extract of XL1-pACYClytBgcpE, radio-HPLC; assay type: biochemical; conditions: after 10 minutes of incubation at 37° C., NADH, CoCl2, pamidronate
T1 construct: 100 μl crude cell extract of XL1-pACYClytBgcpE; made in house; host or cells: E. coli XL1-Blue harbouring pACYClytBgcpE (crude cell extract)
Description: 0.2 g cells of XL1-pACYClytBgcpE are suspended in 1 ml 50 mM Tris hydrochloride, pH 7.4 and 2 mM DTT, cooled on ice and sonified 3×7 sec with a Branson Sonifier 250 (Branson SONIC Power Company) set to 80% duty cycle output, control value of 4 output. The suspension is centrifuged at 14000 rpm for 15 minutes. The supernatant is used as crude cell extract in assays described as follows.
The assay mixture contains 100 mM Tris hydrochloride, pH 7.4, 1.2 mM dithiothreitol, 10 mM NaF, 1 mM CoCl2, 2 mM NADH, 20 mM (18 μCi mol^−1) [2-^14C[…]2C-methyl-erythritol 2,4-cyclodiphophate, 0.5 mM pamidronate and 100 μl crude cell extract of XL1-pACYClytBgcpE in a total volume of 150 μl. The mixture is incubated for 10 to 45 min at 37° C. and cooled on ice. 10 μl of 30% (g/v) trichloroacetic acid are added and the mixture is neutralized with 20 μl of 1 M NaOH.
The mixture is centrifuged at 14.000 rpm for 10 minutes. Aliquotes of 130 μl of the supernatant are analyzed by reversed-phase ion-pair HPLC using a column of Multospher 120 RP 18-AQ-5 (4.6×250 mm, CS-Chromatographie Service GmbH, Langerwehe, Germany). […] The effluent is monitored by a continuous-flow radio detector (Beta-RAM, Biostep GmbH, Jahnsdorf, Germany). […]

γδ T-cells = assay: γδ T cell stimulation assay (PBMCs, FACS Vδ2 TCR/CD3 double staining); assay type: cell-based, human; conditions: for γδ T cell stimulation compared to IPP: at a concentration 200-fold lower than the concentration of the IPP sample; for % γδ T-cells: seven days
Description: PBMCs from healthy donors (donor A and donor B) are isolated from heparinized peripheral blood by density centrifugation over Ficoll-Hypaque (Amersham Pharmacia Biotech, Freiburg, Germany). […] Amounts of recombinant human IL-2 (kindly provided by Eurocetus, Amsterdam, The Netherlands) and substrates are varied from 1 to 10 U and 10 to 0.1 μM, respectively. 20 μM IPP (Echelon, Research Laboratories Inc., Salt Lake City, USA) serves as a positive control whereas medium alone serves as negative control. Incubation is done for seven days at 37° C. in the presence of 7% CO2. The harvested cells are double-stained with fluorescein isothiocyanate (FITC)-conjugated mouse anti-human monoclonal antibody Vδ2 TCR and phycoerythrin (PE)-conjugated monoclonal CD3 antibody. The cells are analyzed using a FACScan supported with Cellquest (Becton Dickinson, Heidelberg, Germany).
The substrates (E)-1-hydroxy-3-methyl-but-2-enyl 4-diphosphate (HMBPP) and 3-formyl-but-2-enyl 1-diphosphate (Aldehyde) were prepared synthetically as described above.

IspH (LytB) = molecular target: T2, IspH (LytB) (Escherichia coli, UniProt P62623); assay: Screening of IspH (LytB) activity, crude cell extract, radio-HPLC; assay type: biochemical
T2 construct: 20 μl of crude cell extract of M15-pMALlytB cells; made in house; host or cells: E. coli M15 harbouring pMALlytB (crude cell extract)

[1] = test system: Capsicum annuum chromoplasts; assay: Incorporation into the lipid soluble fraction of chromoplasts; assay type: biochemical; conditions: [2-14C] label, 8.8 nmol, 30° C. overnight
Description: Chromoplasts are isolated by a slight modification of a method described by Camara (Camara, 1985; Camara, 1993). Pericarp of red pepper (650 g) is homogenized at 4° C. in 600 ml of 50 mM Hepes, pH 8.0, containing 1 mM DTE, 1 mM EDTA and 0.4 M sucrose (buffer A). The suspension is filtered through four layers of nylon cloth (50 μm) and centrifuged (10 min, 4,500 rpm, GSA rotor) to obtain a pellet of crude chromoplasts which is homogenized in 200 ml of buffer A. The suspension is centrifuged (10 min, 4,500 rpm, GSA rotor). The pellet is homogenized and resuspended in 3 ml of 50 mM Hepes, pH 7.6, containing 1 mM DTE. The suspension is filtered through one layer of nylon cloth (50 μm).
Reaction mixtures contain 100 mM Hepes, pH 7.6, 2 mM MnCl2, 10 mM MgCl2, 5 mM NaF, 2 mM NADP^+, 1 mM NADPH, 6 mM ATP, 20 μM FAD and 2 mg of chromoplasts. 8.8 nmol of [2-^14C]2C-methyl-D-erythritol 2,4-cyclodiphosphate, [2-^14C]1-hydroxy-2-methyl-2-(E)-butenyl diphosphate or [2-^14C]isopentenyl diphosphate (specific […] 15.8 μCi/μmol) are added and the mixtures are incubated at 30° C. overnight. The reaction is terminated by methylene chloride extraction. The organic phase is concentrated under a stream of nitrogen. […] The chromatograms are monitored with a phosphor imager (Storm 860, Molecular dynamics, Sunnyvale, Calif., USA). […]

[2] = substrate 0.1 μM, IL-2 1 U, Donor A
[3] = substrate 0.1 μM, IL-2 1 U, Donor B
[4] = substrate 0.1 μM, IL-2 5 U, Donor A
[5] = substrate 0.1 μM, IL-2 5 U, Donor B
[6] = substrate 0.1 μM, IL-2 10 U, Donor A
[7] = substrate 0.1 μM, IL-2 10 U, Donor B
[8] = substrate 1 μM, IL-2 1 U, Donor A
[9] = substrate 1 μM, IL-2 1 U, Donor B
[10] = substrate 1 μM, IL-2 5 U, Donor A
[11] = substrate 1 μM, IL-2 5 U, Donor B
[12] = substrate 1 μM, IL-2 10 U, Donor A
[13] = substrate 1 μM, IL-2 10 U, Donor B
[14] = substrate 10 μM, IL-2 1 U, Donor A
[15] = substrate 10 μM, IL-2 1 U, Donor B
[16] = substrate 10 μM, IL-2 5 U, Donor A
[17] = substrate 10 μM, IL-2 5 U, Donor B
[18] = substrate 10 μM, IL-2 10 U, Donor A
[19] = substrate 10 μM, IL-2 10 U, Donor B

T2 sequence (P62623 whole entry): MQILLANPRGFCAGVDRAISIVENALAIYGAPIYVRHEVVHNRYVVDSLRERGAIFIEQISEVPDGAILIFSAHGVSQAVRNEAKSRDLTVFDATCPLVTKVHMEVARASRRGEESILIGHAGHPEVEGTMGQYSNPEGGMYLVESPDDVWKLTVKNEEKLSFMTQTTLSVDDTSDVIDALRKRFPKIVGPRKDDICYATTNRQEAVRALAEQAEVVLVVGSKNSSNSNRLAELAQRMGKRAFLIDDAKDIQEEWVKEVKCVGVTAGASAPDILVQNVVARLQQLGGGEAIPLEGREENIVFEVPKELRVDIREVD
T1 sequence (P62620 whole entry): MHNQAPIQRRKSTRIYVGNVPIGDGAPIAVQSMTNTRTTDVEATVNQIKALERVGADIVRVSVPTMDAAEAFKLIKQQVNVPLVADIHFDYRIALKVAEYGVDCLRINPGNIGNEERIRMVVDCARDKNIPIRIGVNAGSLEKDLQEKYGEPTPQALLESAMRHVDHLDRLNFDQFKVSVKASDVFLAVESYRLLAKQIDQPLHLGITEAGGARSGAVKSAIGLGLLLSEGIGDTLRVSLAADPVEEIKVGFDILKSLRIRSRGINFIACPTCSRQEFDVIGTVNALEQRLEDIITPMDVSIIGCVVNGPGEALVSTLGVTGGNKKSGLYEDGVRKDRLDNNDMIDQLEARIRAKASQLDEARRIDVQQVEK

Compound | γδ T cell stimulation compared to IPP (γδ T-cells) | % γδ T-cells (γδ T-cells; [2]) | % γδ T-cells (γδ T-cells; [3]) | % γδ T-cells (γδ T-cells; [4]) | % γδ T-cells (γδ T-cells; [5]) | % γδ T-cells (γδ T-cells; [6]) | % γδ T-cells (γδ T-cells; [7]) | % γδ T-cells (γδ T-cells; [8]) | % γδ T-cells (γδ T-cells; [9]) | % γδ T-cells (γδ T-cells; [10]) | % γδ T-cells (γδ T-cells; [11]) | % γδ T-cells (γδ T-cells; [12]) | % γδ T-cells (γδ T-cells; [13]) | % γδ T-cells (γδ T-cells; [14]) | % γδ T-cells (γδ T-cells; [15]) | % γδ T-cells (γδ T-cells; [16]) | % γδ T-cells (γδ T-cells; [17]) | % γδ T-cells (γδ T-cells; [18]) | % γδ T-cells (γδ T-cells; [19]) | further results
C[C@@]1(CO)OP(=O)(O)OP(=O)(O)OC[C@H]1O [2C-methyl-erythritol 2,4-cyclodiphophate, 2C-methyl-D-erythritol 2,4-cyclodiphosphate] |  |  |  |  |  |  |  |  |  |  |  |  |  |  |  |  |  |  |  | substrate converted into 1-hydroxy-2-methyl-2-(E)-butenyl-4-diphosphate and DMAPP/IPP (IspG (GcpE)): about 13%
C/C(=C\COP(=O)(O)OP(=O)(O)O)CO [HMBPP, (E)-1-hydroxy-3-methyl-but-2-enyl 4-diphosphate] | at least double stimulation compared to IPP | 11.78% | 32.21% | 22.92% | 44.69% | 34.69% | 36.33% | 5.57% | 35.34% | 14.4% | 54.12% | 19.85% | 55.90% | 3.3% | 31.42% | 17.38% | 63.48% | 24.94% | 63.34% | HPLC peak of substrate; conversion into DMAPP and IPP (IspH (LytB); crude cell extract of E. coli M15-pMALlytB cells, 30 min at 37° C., NADH, FAD, pamidronate): completely diminished; conversion into DMAPP and IPP (IspH (LytB); crude cell extract of E. coli wild-type as protein source): No conversion; radioactivity diverted into geranylgeraniol, carotene, phytoene and phytofluene fractions [1]: efficiently diverted
C=C(C)CCO[P@@](=O)(O)OP(=O)(O)O [IPP, isopentenyl diphosphate, reference compound] |  | 1.3% | 2.15% | 1.3% | 2.26% | 1.01% | 2.54% | 1.56% | 2.22% | 1.59% | 2.67% | 1.71% | 2.19% |  |  |  |  |  |  | % γδ T-cells (γδ T-cells; substrate 20 μM, IL-2 1 U, Donor A): 8.19%; % γδ T-cells (γδ T-cells; substrate 20 μM, IL-2 1 U, Donor B): 6.24%; % γδ T-cells (γδ T-cells; substrate 20 μM, IL-2 5 U, Donor A): 14.42%; % γδ T-cells (γδ T-cells; substrate 20 μM, IL-2 5 U, Donor B): 9.32%; % γδ T-cells (γδ T-cells; substrate 20 μM, IL-2 10 U, Donor A): 16.6%; % γδ T-cells (γδ T-cells; substrate 20 μM, IL-2 10 U, Donor B): 11.86%
(E)-3-formyl-but-2-enyl 1-diphosphate [Aldehyde] | at least double stimulation compared to IPP | 10% | 13.54% | 19.77% | 18.45% | 21.93% | 25.82% | 15.91% | 21.18% | 40.13% | 30.76% | 48.28% | 36.69% | 12.19% | 30.69% | 34.69% | 30.33% | 38.99% | 38.85% | 
